Data: patent US10322132B2, “Prevention or treatment of uratic or gouty diseases” (SHANTON PHARMA CO., LTD., priority 2015, dated 2019)

What was measured:
[1] = Pharmacokinetics experiment in cynomolgus monkeys, intravenous; type: in vivo, cynomolgus monkeys (Macaca fascicularis); conditions: Mean ± SD, n = 3
Procedure: Three non-naïve cynomolgus monkeys were administered with test compounds A, B and D at a dose of 5 mg/kg by intravenous injection and with test compound C at a dose of 3 mg/kg by intravenous injection, with one compound being tested at a time. Blood was collected from the vein before administration and 1 h, 3 h, 6 h and 24 h after administration, and plasma was isolated. The plasma was analyzed by a 4000 Q Trap LC-MS/MS instrument. The concentrations of the test samples were output by Analyst 1.6.1 from AB Company. The parameters ( ) such as the mean, standard deviation, and coefficient of variation were calculated using Microsoft Excel, wherein the values directly output by Analyst 1.6.1 requires no calculation. PK parameters were calculated using Pharsight Phoenix 6.2 software (NCA model).

[2] = system: serum uric acid; test: Uric acid-lowering experiment in cynomolgus monkeys; type: in vivo; design: Reduction rate of serum uric acid: concentration or dose not given beside the values; conditions: for effect on serum uric acid levels in the test monkeys (in words): compared to the levels measured before administration; for Reduction rate of serum uric acid / Content of serum uric acid: intravenous
Procedure: The experiment was done by reference to Komoriya K, Osada Y, Hasegawa M, Horiuchi H, Kondo S, Couch R C, Griffin T B. Hypouricemic effect of allopurinol and the novel xanthine oxidase inhibitor TEI-6720 in chimpanzees. Eur J Pharmacol. 1993 Dec. 21; 250(3): 455-60.
Each compound was tested in three non-naïve cynomolgus monkeys (1 #, 2 # and 3 #), wherein the monkeys were administered with test samples by intravenous injection. Blood was collected from the vein before administration and 1 h, 3 h, 6 h and 24 h after administration. The blood was left still at room temperature. The serum was collected by centrifugation. The content of uric acid in serum was measured. Reduction rate of serum uric acid=(average uric acid content before administration−average uric acid content after administration)/average uric acid content before administration*100%.

[3] = system: MSU-induced gouty arthritis; test: MSU-induced gouty arthritis, toe volume; type: in vivo, Male Wistar rats; conditions: for Change of toe volume: 9 h after MSU injection into left ankle joint cavity; for Inhibition of toe volume change (%) / Toe volume change: 9 h after MSU; for Inhibition of toe volume change (%): vs model group; for effect on increase of the toe volumes in the test rats (in words): compared with the model group
Procedure: The experiment was done by reference to Hsin-Pai Lee, Shi-Ying Huang, Yen-You Lin. Soft Coral-Derived Lemnalol Alleviates Monosodium Urate-Induced Gouty Arthritis in Rats by Inhibiting Leukocyte Infiltration and iNOS, COX-2 and c-Fos Protein Expression. […] 2013, 11, 99-113.
One gram of uric acid was weighed, introduced into 200 mL of boiling water and heated. Then, NaOH (2 mol/L) was added until pH reached 9. The solution became clear, and was cooled at room temperature and then left still overnight. MSU was obtained after filtration, which was dried at 60° C. for 24 h and then sterilized at a high temperature of 180° C.
(§1) The toe volumes of the rats were measured one day prior to the experiment. The rats were administered with the solvent by subcutaneous injection in the model group at a dose of 5 mL/kg, while the rats were administered with test samples by subcutaneous injection in administration groups at a dose of 5 mg/kg. Rats were anesthetized immediately after administration and were injected with 0.09 mL of MSU suspension into the joint cavity of the left ankle. The volume of the left toe was measured in rats 9 h after the injection of MSU into the ankle joint cavity.
as §1, with “dose of 15 mL/kg, while” for “dose of 5 mL/kg, while”, “dose of 15 mg/kg or 10 mg/kg. Rats” for “dose of 5 mg/kg. Rats”
The toe volumes of rats were measured one day prior to the experiment. The rats were administered with the solvent by subcutaneous injection in the model group at a dose of 15 mL/kg, while the rats were administered with the test sample by subcutaneous injection in administration group at a dose of 15 mg/kg. Rats were anesthetized immediately after administration and were injected with 0.09 mL of MSU suspension into the joint cavity of the left ankle. The volume of the left toe in each rat was measured 9 h after the injection of MSU into the ankle joint cavity.

[4] = system: MSU-induced gouty arthritis; test: Pain value in rats with gouty arthritis (electronic Von Frey pain threshold detector); type: in vivo, Male Wistar rats; conditions: for Pain value: left foot, Von Frey
Procedure: The rats with gouty arthritis were placed in a metabolic cage, and the palm center of the left foot of each rat was irritated with an electronic Von Frey pain threshold detector. The maximum stress value was recorded when each rat withdrew its foot, and the value was the pain value of that rat.

[5] = molecular target: T1, human urate transporter 1 (hURAT1) (Homo sapiens, UniProt Q96S37); test: Uptake of 14C-labeled uric acid in hURAT1 transfected cells; type: cell-based; conditions: 14C uric acid uptake, hURAT1-transfected HEK-293T cells, 5 min at 37° C.; read-out: IC50 (μM), inhibition of hURAT1 activity
T1 construct: expressed in transfected cells; host or cells: HEK-293T
T1 sequence (Q96S37 1-553): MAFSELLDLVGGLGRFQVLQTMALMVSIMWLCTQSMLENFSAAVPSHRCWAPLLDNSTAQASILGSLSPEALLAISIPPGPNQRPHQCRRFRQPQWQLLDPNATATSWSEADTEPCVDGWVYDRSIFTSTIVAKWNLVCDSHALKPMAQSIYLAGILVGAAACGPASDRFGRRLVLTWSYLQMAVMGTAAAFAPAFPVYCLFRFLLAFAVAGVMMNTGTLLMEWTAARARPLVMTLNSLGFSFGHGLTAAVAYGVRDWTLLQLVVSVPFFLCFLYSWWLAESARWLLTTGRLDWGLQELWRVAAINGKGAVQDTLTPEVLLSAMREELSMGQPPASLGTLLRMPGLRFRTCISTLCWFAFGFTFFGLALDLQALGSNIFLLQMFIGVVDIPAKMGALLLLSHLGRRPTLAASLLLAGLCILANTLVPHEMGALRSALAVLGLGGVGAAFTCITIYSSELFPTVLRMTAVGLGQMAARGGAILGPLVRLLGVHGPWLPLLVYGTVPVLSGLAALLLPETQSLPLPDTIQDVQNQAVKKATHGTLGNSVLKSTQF
Procedure: The compounds were prepared into the stock solutions (5 mM) with dimethyl sulfoxide (DMSO). This experiment involved 8 concentrations in total. The final concentrations were 5000 nM, 1250 nM, 312.5 nM, 78.1 nM, 19.5 nM, 4.9 nM, 1.2 nM and 0.3 nM, respectively.
Preparation of buffers: chlorine-free HBSS buffer (125 mM sodium gluconate, 4.8 mM potassium gluconate, 1.3 mM calcium gluconate, 1.2 mM KH2PO4, 1.2 mM MgSO4, 5.6 mM glucose, 25 mM 4-hydroxyethylpiperazine ethanesulfonic acid (HEPES) (pH 7.4)); lysis buffer (100 mM NaOH)
Transfected cells stably expressing human urate transporter 1 (hURAT1) were obtained by: placing human embryonic kidney cells (HEK-293T) in a cell culture plate containing complete medium, incubating the cells for 24 h at 37° C. in 5% CO2, rinsing the cells with phosphate buffered saline (PBS) followed by trypsin digestion to prepare a suspension containing single cells; placing 8×10^6 cells a cell culture plate, adding dropwise TransIT-293 Reagent:DNA complexes (1.5 ml of Opti-MEM I Reduced-Serum Medium, 15 g of plasmid DNA, and 45 μL of TransIT-293 Reagent were mixed uniformly and then incubated at room temperature for 30 min) to different areas of the cell culture plate, gently shaking the cell culture plate to homogeneously distribute the TransIT-293 Reagent:DNA complexes, and incubating the cells for 48 h at 37° C. in 5% CO2.
Uptake of ^14C-labeled uric acid in hURAT1 transfected cells: (1) hURAT1-transfected cells were placed in a Poly-D-lysine 96-well microplate at a cell density of 6×10^4/well, and left still overnight at 37° C. in 5% CO2; (2) after the cells were placed in the Poly-D-lysine 96-well microplate for 12 h, the cells were washed for 3 times with 200 μl of pre-heated chlorine-free HBSS buffer per well, and the washing solution in the microplate was removed; (3) 50 μl of uric acid-containing [8-14C] […]

[6] = system: TNF-α; test: LPS-induced TNF-α release; type: in vivo, Male BALB/C mice
Procedure: The experiment was conducted by reference to Pascale Gaillard, Isabelle Jeanclaude-Etter, etc. Design and Synthesis of the First Generation of Novel Potent, Selective, and in Vivo Active (Benzothiazol-2-yl)acetonitrile
BALB/C mice were raised in the SPF-grade animal room for 1 week, and were then randomly divided into the corresponding model group and the administration groups according to the body weight. The […] were administered with the solvent or the test samples by subcutaneous injection at a dose of 10 mg/kg. The rats were administered with LPS by intraperitoneal injection at a dose of 15 mg/kg 30 min after the administration of the solvent or the test samples. The mice were anesthetized with sodium pentobarbital (45 mg/kg by intraperitoneal injection) 1 h after LPS administration. The blood was collected by cardiac puncture, and the content of TNF-α (tumor necrosis factor) in plasma was measured with a Mouse TNF-α Elisa Ready-set-go kit.

[7] = system: IFNγ; test: ConA-induced IFNγ release; type: in vivo, Male C57BL/6 mice
Procedure: The experiment was conducted by reference to Dalya R. Soondl, Elisa Bjørgo, etc. PI3K p110δ regulates T cell cytokine production during primary and secondary immune responses in mice and humans. Blood. Author manuscript; available in PMC 2013 Mar. 11; and Gabriele Sass, Sonja Heinlein, etc. CYTOKINE EXPRESSION IN THREE MOUSE MODELS OF EXPERIMENTAL HEPATITIS. CYTOKINE, Vol. 19, No. 3 (7 Aug.), 2002: pp 115-120.
The C57BL/6 mice were raised in the SPF-grade animal room for 1 week, and were then randomly divided into the corresponding model group and the administration groups according to the body weight. The […] were administered with ConA by the tail vein injection at a dose of 15 mg/kg 30 min after the administration of the solvent or the test samples by subcutaneous injection at a dose of 20 mg/kg. After the mice were anesthetized with sodium pentobarbital (45 mg/kg by intraperitoneal injection) 3 h after administration of ConA, the blood was collected by cardiac puncture. The blood was placed in the centrifuge tube without anticoagulant and left still at room temperature. One hour later, the blood was centrifuged. The serum was extracted and stored at −80° C. The content of IFNγ (γ-interferon) in the serum was detected by a Mouse IFNγ Elisa

[8] = Example 4, 5 mg/kg subcutaneous
[9] = Example 6, 15 mg/kg subcutaneous
[10] = Example 5, 10 mg/kg subcutaneous

In the case of `CCCCn1c(=O)[nH]c(=O)c2[nH]c(Cl)nc21` [Compound B, 8-chloro-3-butyl-3,7-dihydro-1H-purine-2,6-dione], the “t1/2z” value ([1]; 5 mg/kg) is reported as 2.72 ± 0.35 h, the “effect on serum uric acid levels in the test monkeys (in words)” value [2] is reported as “significantly reduce” and the “Reduction rate of serum uric acid” value ([2]; 3 h after administration vs before administration, animal 1#) is reported as 17.5%. For the same compound, the “Reduction rate of serum uric acid” value ([2]; 3 h after administration vs before administration, animal 2#) was 9.2%, the “Reduction rate of serum uric acid” value ([2]; 3 h after administration vs before administration, mean) was 14.1% and the “Content of serum uric acid” value ([2]; 3 h after administration, animal 1#) was 69.1 µmol/L. The “Content of serum uric acid” value ([2]; 3 h after administration, animal 2#) was 52.3 µmol/L, the “Content of serum uric acid” value ([2]; 3 h after administration, mean) was 60.7 µmol/L and the “Change of toe volume” value [3, 8] was 0.349 mL. For the same compound, the “Inhibition of toe volume change (%)” value [3, 8] was 30.8%, the “effect on increase of the toe volumes in the test rats (in words)” value (“effect on increase of the toe volumes” for short) ([3]; Example 4, 5 mg/kg) was “significantly inhibit” and the “Toe volume change” value [3, 9] was 0.229 mL. For the same compound, the “Inhibition of toe volume change (%)” value [3, 9] was 49.1%, the “effect on increase of the toe volumes” value ([3]; Example 6, 15 mg/kg) was “significantly inhibit” and the “Pain value” [4, 9] was 37.2 g. The “effect on pain in the test rats (in words)” value ([4]; Example 6, compared with the model group) was “significantly reduce” and the IC50 [5] was 3.02 µM.
In the case of `CCCCn1c(=O)n(C)c(=O)c2[nH]c(Cl)nc21` [Compound C, 8-chloro-1-methyl-3-butyl-3,7-dihydro-1H-purine-2,6-dione], the “t1/2z” value ([1]; 3 mg/kg) is reported as 41.49 ± 12.31 h, the “effect on serum uric acid levels in the test monkeys (in words)” value [2] is reported as “significantly reduce” and the “Reduction rate of serum uric acid” value ([2]; 24 h after administration vs before administration, animal 1#) is reported as 20.3%. For the same compound, the “Reduction rate of serum uric acid” value ([2]; 24 h after administration vs before administration, animal 2#) was 41.0%, the “Reduction rate of serum uric acid” value ([2]; 24 h after administration vs before administration, animal 3#) was 13.9% and the “Reduction rate of serum uric acid” value ([2]; 24 h after administration vs before administration, mean) was 25.7%. The “Content of serum uric acid” value ([2]; 24 h after administration, animal 1#) was 45.8 µmol/L, the “Content of serum uric acid” value ([2]; 24 h after administration, animal 2#) was 38.3 µmol/L and the “Content of serum uric acid” value ([2]; 24 h after administration, animal 3#) was 50.7 µmol/L. For the same compound, the “Content of serum uric acid” value ([2]; 24 h after administration, mean) was 44.9 µmol/L, the “Change of toe volume” value [3, 8] was 0.451 mL and the “Inhibition of toe volume change (%)” value [3, 8] was 10.5%. For the same compound, the “effect on increase of the toe volumes” value ([3]; Example 4, 5 mg/kg) was “significantly inhibit”, the “Toe volume change” value [3, 10] was 0.261 mL and the “Inhibition of toe volume change (%)” value [3, 10] was 35.4%. The “effect on increase of the toe volumes” value ([3]; Example 5, 15 mg/kg or 10 mg/kg) was “significantly inhibit”, the “Pain value” [4, 10] was 43.46 g and the “effect on pain values in the test rats (in words)” value ([4]; Example 5, compared with the model group) was “significantly increase”. The “inhibition (%)” value ([6]; TNF-α in plasma vs model group, 10 mg/kg subcutaneous) was 24.4%, the “effect on content of TNF-α in the plasma of the test mice (in words)” value ([6]; compared with the model group) was “significantly reduce” and the “Content of TNF-α” value ([6]; plasma, 10 mg/kg subcutaneous 30 min before LPS 15 mg/kg i.p., 1 h after LPS) was 1208 pg/mL. The “inhibition (%)” value ([7]; IFN-γ in serum vs model group, 20 mg/kg subcutaneous) was 19.4%, the “effect on content of IFNγ in the serum of the test mice (in words)” value ([7]; compared with the model group) was “significantly reduce” and the “Content of IFN-γ” value ([7]; serum, 20 mg/kg subcutaneous 30 min before ConA 15 mg/kg tail vein, 3 h after ConA) was 2644 pg/mL.
